# Test results as given in the supplement of paper PMC10307832.
# Tests used:
# Experiment in all cases: relative viability (nuclei count vs DMSO), 5 days (fraction); higher = more cells survive
# Dinaciclib + Foretinib = compound: CCc1cnn2c(NCc3ccc[n+]([O-])c3)cc(N3CCCC[C@H]3CCO)nc12 [Dinaciclib] + COc1cc2c(Oc3ccc(NC(=O)C4(C(=O)Nc5ccc(F)cc5)CC4)cc3F)ccnc2cc1OCCCN1CCOCC1 [Foretinib] (partner 0.25 µM)
# How it was run: (§1)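 After 5 days of treatment, lung cancer cells in 1536-well plates were fixed and stained in a single step (final 0.05% Triton X-100, 1% formaldehyde, 1 ug/ml Hoechst) and their nuclei counted on 4× images. Treatment had been applied by pin tool the day after seeding as one drug alone or as a fixed anchor-drug dose with five library-drug doses (not always all listed) in √10 steps. Relative viability is the nuclei count of treated wells divided by that of vehicle wells, and values are medians of duplicate plates.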
# Dinaciclib + OSI-027 = compound: CCc1cnn2c(NCc3ccc[n+]([O-])c3)cc(N3CCCC[C@H]3CCO)nc12 [Dinaciclib] + COc1cccc2cc(-c3nc([C@H]4CC[C@H](C(=O)O)CC4)n4ncnc(N)c34)[nH]c12 [OSI-027] (partner 0.5 µM)
# How it was run: as §1
# Dinaciclib + Phenformin = compound: CCc1cnn2c(NCc3ccc[n+]([O-])c3)cc(N3CCCC[C@H]3CCO)nc12 [Dinaciclib] + N=C(N)NC(=N)NCCc1ccccc1 [Phenformin] (partner 250 µM)
# How it was run: as §1
# Dinaciclib + Crizotinib = compound: CCc1cnn2c(NCc3ccc[n+]([O-])c3)cc(N3CCCC[C@H]3CCO)nc12 [Dinaciclib] + C[C@@H](Oc1cc(-c2cnn(C3CCNCC3)c2)cnc1N)c1c(Cl)ccc(F)c1Cl [Crizotinib] (partner 1 µM)
# How it was run: as §1
# Dinaciclib + Alpelisib = compound: CCc1cnn2c(NCc3ccc[n+]([O-])c3)cc(N3CCCC[C@H]3CCO)nc12 [Dinaciclib] + Cc1nc(NC(=O)N2CCC[C@H]2C(N)=O)sc1-c1ccnc(C(C)(C)C(F)(F)F)c1 [Alpelisib] (partner 2 µM)
# How it was run: as §1
Cell Line,relative viability (Dinaciclib + Foretinib; first compound 0.009487 µM),relative viability (Dinaciclib + Foretinib; first compound 0.03 µM),relative viability (Dinaciclib + Foretinib; first compound 0.09487 µM),relative viability (Dinaciclib + Foretinib; first compound 0.3 µM),relative viability (Dinaciclib + OSI-027; first compound 0.009487 µM),relative viability (Dinaciclib + OSI-027; first compound 0.03 µM),relative viability (Dinaciclib + OSI-027; first compound 0.09487 µM),relative viability (Dinaciclib + OSI-027; first compound 0.3 µM),relative viability (Dinaciclib + Phenformin; first compound 0.009487 µM),relative viability (Dinaciclib + Phenformin; first compound 0.03 µM),relative viability (Dinaciclib + Phenformin; first compound 0.09487 µM),relative viability (Dinaciclib + Phenformin; first compound 0.3 µM),relative viability (Dinaciclib + Crizotinib; first compound 0.009487 µM),relative viability (Dinaciclib + Crizotinib; first compound 0.03 µM),relative viability (Dinaciclib + Crizotinib; first compound 0.09487 µM),relative viability (Dinaciclib + Crizotinib; first compound 0.3 µM),relative viability (Dinaciclib + Alpelisib; first compound 0.009487 µM),relative viability (Dinaciclib + Alpelisib; first compound 0.03 µM),relative viability (Dinaciclib + Alpelisib; first compound 0.09487 µM),relative viability (Dinaciclib + Alpelisib; first compound 0.3 µM)
201T,1.19,0.174,0.171,0.15,0.801,0.297,0.119,0.183,0.418,0.415,0.257,0.238,0.938,0.739,0.265,0.313,1.11,0.829,0.288,0.284
A549,0.952,0.0544,0.0214,0.0246,–,–,–,–,0.174,0.0204,0.035,0.0274,0.724,0.365,0.0408,0.05,0.686,0.0411,0.0487,0.0518
A-427,0.955,0.117,0.0874,0.0871,0.385,0.143,0.0922,0.0796,0.328,0.094,0.0857,0.0889,0.72,0.12,0.057,0.0481,1.11,0.138,0.0763,0.067
ABC-1,0.876,0.166,0.126,0.106,0.329,0.123,0.104,0.118,0.209,0.157,0.13,0.132,1.16,0.178,0.11,0.0832,0.726,0.342,0.194,0.172
BEN,0.866,0.845,0.153,0.176,0.289,0.264,0.191,0.198,0.235,0.217,0.174,0.209,1,0.512,0.18,0.215,1.24,0.517,0.207,0.236
CAL-12T,1.07,0.105,0.13,0.116,0.235,0.136,0.118,0.124,0.188,0.103,0.107,0.097,0.503,0.0856,0.0861,0.103,0.443,0.128,0.0835,0.115
COR-L23,0.871,0.118,0.0996,0.0936,0.608,0.0953,0.0761,0.0902,0.296,0.0764,0.0763,0.069,0.456,0.0842,0.0684,0.0575,0.637,0.0835,0.0694,0.0603
COR-L 105,1.17,0.644,0.247,0.259,0.51,0.232,0.224,0.234,0.384,0.217,0.208,0.201,0.923,0.192,0.171,0.189,0.575,0.35,0.234,0.187
ChaGo-K-1,0.918,0.245,0.12,0.14,0.499,0.186,0.128,0.119,0.414,0.17,0.125,0.137,0.699,0.229,0.224,0.214,–,–,–,–
HCC-44,–,–,–,–,0.286,0.208,0.159,0.17,0.138,0.105,0.0633,0.0778,0.741,0.133,0.118,0.112,0.677,0.095,0.133,0.118
NCI-H522,–,–,–,–,0.76,0.517,0.439,0.382,0.598,0.5,0.341,0.339,–,–,–,–,–,–,–,–
NCI-H1395,1.18,0.335,0.269,0.252,0.631,0.311,0.251,0.215,0.453,0.306,0.301,0.248,–,–,–,–,0.903,0.304,0.312,0.303
NCI-H1650,1.1,0.336,0.167,0.14,0.426,0.15,0.136,0.123,0.262,0.139,0.151,0.126,0.97,0.121,0.0986,0.113,–,–,–,–
NCI-H1703,0.39,0.319,0.144,0.12,–,–,–,–,–,–,–,–,0.61,0.229,0.0855,0.106,0.419,0.119,0.0849,0.115
NCI-H1792,–,–,–,–,0.729,0.539,0.36,0.174,0.237,0.184,0.0541,0.075,0.994,0.747,0.184,0.0753,0.732,0.289,0.118,0.0656
NCI-H1793,0.344,0.171,0.141,0.143,0.268,0.13,0.107,0.123,0.374,0.235,0.115,0.119,–,–,–,–,0.468,0.188,0.163,0.15
NCI-H2342,0.998,0.739,0.273,0.274,0.559,0.532,0.32,0.315,0.737,0.543,0.288,0.303,–,–,–,–,–,–,–,–
